A short description of data set [1]: Uncoupling of oxidative phosphorylation in rat liver mitochondria at pH 7 relative to control. Format: functional.
A short description of data set [2]: Uncoupling of oxidative phosphorylation in rat liver mitochondria at pH 5 relative to control. Format: functional.
The nature of data set [3]: Octanol-aqueous phase distribution coefficient, log D of the compound at pH 6. Format: physicochemical.
A short description of data set [4]: Octanol-aqueous phase distribution coefficient, log D of the compound at pH 8. Format: physicochemical.
Data set [5] can be described thus: physchem. The conditions noted are these: octanol/aqueous phase.
Description: Octanol-aqueous phase partition coefficient, log P of the compound
Data set [6] in a line: physchem.
Data set [7] in a line: Uncoupling of oxidative phosphorylation in rat liver mitochondria at pH 6 relative to control. Format: functional.
Data set [8] in a line: Uncoupling of oxidative phosphorylation in rat liver mitochondria at pH 8 relative to control. Format: functional.
Data set [9] in a line: Octanol-aqueous phase distribution coefficient, log D of the compound at pH 7. Format: physicochemical.
A short description of data set [10]: Octanol-aqueous phase distribution coefficient, log D of the compound at pH 5. Format: physicochemical.
The test system of data set [11] is Colon. Kind of data set: Drug absorption in anesthetized rat colon at pH 6.8. Format: ADME, tissue-based. The conditions noted are these: in vivo.
The nature of data set [12]: physchem. The conditions noted are these: octanol/aqueous phase. This is another data set of the same source.
A short description of data set [13]: Octanol-aqueous phase […] of the compound at pH 7.10. Format: physicochemical. The conditions noted are these: pH 7.1.
Data set [14] is described as follows: Dissociation constant, pKa of the compound by titrimetric analysis. Format: physicochemical.
For data set [15] the following is noted: octanol/water.
Description: Octanol-water partition coefficient, log P of the compound
Data set [16] can be described thus: physchem. The conditions noted are these: pH 7.8.
Description: Dissociation constant, pKa of the compound at pH 7.8
Data set [17] concerns Neuron. As to the kind of experiment: Increase in membrane potential in mollusc neurons assessed as conductance of potassium at pH 7.8 relative to salicylic acid. Format: functional, Mollusca.

Results on 5 molecules are retold here after ChEMBL document CHEMBL3272293, “Use of distribution coefficients in quantitative structure-activity relationships” (J Med Chem, 1977).

Consider `CC(C)CCc1cc([N+](=O)[O-])c(O)c([N+](=O)[O-])c1`, for which the fold change (FC) in data set [1] was found to be 5.18; in data set [2], 5.5; in data set [7], 5.42; in [8], 4.92. The pH-dependent lipophilicity (logD) in data set [3] was 1.92; in [4], -0.08; in data set [9], 0.92; in data set [10], 2.82. For the same molecule, the log partition coefficient (logP) in [5] is 3.82. In [6], the pKa turned out to be 4.1.
Molecule `CN1CC[C@]23CCCC[C@H]2[C@H]1Cc1ccc(O)cc13` [LEVORPHANOL] returned a log%Abs in [11] of 1.11. Also, the logD in [12] amounted to 0.02; in data set [13] it was 3.02. The pKa in [14] is 3.
As for `O=C(O)c1cc(Cl)cc(Cl)c1O`, in data set [15], the logP is recorded as 3.88. The molecule also showed a logD in data set [12] of -1.62. Besides, the pKa in data set [16] came to 5.5; in data set [6], 2.3. Besides, the “fold change (FC)” value in [17] was 1.48.
As to `Cc1cc([N+](=O)[O-])c(O)c([N+](=O)[O-])c1C`, the fold change (FC) was determined as 4.36 in [1], 4.92 in data set [2], 4.51 in data set [7] and 3.95 in data set [8]. Further, the logD in data set [3] is 0.74; in [4], -1.26; in data set [9], -0.26; in data set [10] it was 1.64. The molecule further displayed a logP in data set [5] of 2.54. The pKa in data set [6] worked out at 4.2.
`CC(C)Cc1cc([N+](=O)[O-])c(O)c([N+](=O)[O-])c1`: the fold change (FC) in data set [1] was found to be 4.71; in [2], 5.16; in [7], 4.88; in data set [8] it was 4.48. Further, the logD in [3] was 1.62; in data set [4], -0.38; in data set [9], 0.62; in data set [10] it was 2.52. In data set [5], this molecule returned a logP of 3.32. This molecule had a pKa in data set [6] of 4.3.

The logD is the decadic logarithm of the distribution of all forms, ionised or not, between an organic phase and buffer at a given pH. Low readings indicate lower lipophilicity, high ones higher lipophilicity. The term logP denotes the decadic logarithm of the partition coefficient of the neutral form, usually between octanol and water. A word on the pKa: it is the negative logarithm of the acid dissociation constant. A high value points to a weaker acid or stronger base.
